Source: patent publication US20150150822A1, “NOVEL CORE-SHELL NANOPARTICLES FOR ORAL DRUG DELIVERY” (South Dakota State University, priority 2013, published 2015)

Experiments:
[1] = cited from earlier work
[2] = background statement; cited from earlier work
[3] = Permeability and efflux ratio of saquinavir across Caco-2 cell monolayers; assay type: in vitro ADME; conditions: human, pH 7.4, Caco-2 monolayer
Method: Caco-2 cells (ATCC, Manassas, Va.) were kindly provided by Dr. Gunaje Jayarama (Department of Pharmaceutical Sciences, South Dakota State University, Brookings, S. Dak.) at passage #4. Cells were seeded at 1×10^6 cells onto […]®polyester filter membranes (pore size 0.4 um, growth area 4.67 cm^2) in 6 welled sterile plates ([…]®, Corning Costar Corp., Cambridge, Mass.). The cells were grown in DMEM (4.5 g/L glucose) medium supplemented with 20% FBS, 1% non-essential amino acids, I % L-glutamine, streptomycin (100 μg/ml) and penicillin (100 IU/ml). The cultures were maintained in an atmosphere of 5% CO2 and 95% air, and 95% relative humidity at 37° C. (CO2 incubator, Galaxy 170S). The growth medium was changed every day in the first two weeks followed by three times a week until time of use. When reaching confluency, cells were trypsinized and passage numbers 25-35 were used in the experiments. The cells were allowed to differentiate in the […]® filter membrane during 3 weeks in complete growth medium.
The permeability of saquinavir and saquinavir loaded ZLF nanoparticles were studied across Caco-2 cell monolayers in an absorptive direction apical to basolateral (AP-BL) or secretory direction basolateral to apical (BL-AP). Before the permeability experiments, the cell monolayers were rinsed twice with HBSS, pH 7.4, and equilibrated under experimental conditions for 20 min. Then, the apical fluid was replaced by 1.5 ml of experimental solution. Transepithelial electrical resistance (TEER) was measured using an EVOM meter (World Precision Instruments, Inc., Sarasota, Fla.) to ensure monolayer confluence and integrity. TEER was calculated as follows: […]
Where R(Ω) is the measured resistance and A is the surface area (cm^2). […] Results are expressed as apparent permeability coefficient (Papp), calculated according to: […]
Saquinavir content after extraction was analyzed in the samples using the HPLC as recited herein. […]
The ratio of effective permeability for saquinavir or efflux ratio was calculated as follows: […]

efflux ratio at 3 h, 20 μM ([3]; Papp B-A/Papp A-B) | Papp A→B at 3 h, 20 μM ([3]; apical to basolateral, free saquinavir at 20 μM) | Papp B→A at 3 h, 20 μM ([3]; basolateral to apical, free saquinavir at 20 μM) | Structure (SMILES) | Log P [1] | solubility in water [1] | bioavailability [2]
– | – | – | CC1=C(/C=C/C(C)=C/C=C/C(C)=C/CO)C(C)(C)CCC1 [Retinol] | 6.2 | practically insoluble in water | –
16.7 | 0.85 ± 0.21 ×10⁻⁶ cm/s | 14.2 ± 5.3 ×10⁻⁶ cm/s | CC(C)(C)NC(=O)[C@@H]1C[C@@H]2CCCC[C@@H]2CN1C[C@@H](O)[C@H](Cc1ccccc1)NC(=O)[C@H](CC(N)=O)NC(=O)c1ccc2ccccc2n1 [Saquinavir] | – | – | 0.7-4%
